Data reported in patent US20030134859A1 (SANKYO COMPANY, LIMITED, priority 2000, published 2003).
Counter-ions that a name gives are not always drawn.

Target: T1, human PPAR γ 2 (Homo sapiens, UniProt P37231)
T1 construct: expressed in transfected cells; host or cells: human osteosarcoma MG63, transiently co-transfected with pSG5-hPPARg and the reporter pGV-P2-PPRE
T1 sequence (P37231 1-505): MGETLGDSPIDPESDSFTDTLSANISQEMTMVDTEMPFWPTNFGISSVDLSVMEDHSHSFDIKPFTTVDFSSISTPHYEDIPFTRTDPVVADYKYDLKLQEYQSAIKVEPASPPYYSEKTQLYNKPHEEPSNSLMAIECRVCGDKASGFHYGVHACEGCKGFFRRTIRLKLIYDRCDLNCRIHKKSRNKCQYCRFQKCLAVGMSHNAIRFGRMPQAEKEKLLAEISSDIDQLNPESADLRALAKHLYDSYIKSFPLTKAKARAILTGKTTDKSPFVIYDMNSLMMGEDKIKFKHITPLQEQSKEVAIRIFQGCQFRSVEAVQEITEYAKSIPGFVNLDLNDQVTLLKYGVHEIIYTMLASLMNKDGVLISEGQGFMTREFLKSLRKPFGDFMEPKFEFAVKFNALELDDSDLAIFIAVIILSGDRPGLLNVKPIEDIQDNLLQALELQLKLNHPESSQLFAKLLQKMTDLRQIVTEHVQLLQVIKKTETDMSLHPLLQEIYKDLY
Assay: Inhibitory activity against PPAR γ transcription in the presence of agonist compound A, luciferase reporter
Format: cell-based
Conditions: in the presence of 10 nM compound A (agonist); MG63 cells transfected with pSG5-hPPARg and pGV-P2-PPRE; 24 hr

| SMILES | IC50 |
| --- | --- |
| N#Cc1ccc(NC(=O)c2cc([N+](=O)[O-])ccc2Cl)cc1 [Example 20, N-(4-Cyanophenyl)-(2-chloro-5-nitrophenyl)carboxamide] | 15 nM |
| Cc1cccc(-c2csc(NC(=O)c3cc([N+](=O)[O-])ccc3Cl)n2)c1 [Example 40, N-[4-(3-Methylphenyl)thiazol-2-yl)-(2-chloro-5-nitrophenyl)carboxamide] | 57 nM |
| CCc1ccc(-c2csc(NC(=O)c3cc([N+](=O)[O-])ccc3Cl)n2)cc1 [Example 44, N-[4-(4-Ethylphenyl)thiazol-2-yl]-(2-chloro-5-nitrophenyl)carboxamide] | 84 nM |
| Cc1cc(Cl)nc(NC(=O)c2cc([N+](=O)[O-])ccc2Cl)n1 [Example 78, N-(4-Chloro-6-methylpyrimidin-2-yl)-(2-chloro-5-nitrophenyl)carboxamide] | 84 nM |
| CC(C)(C)OC(=O)Nc1ccc(-c2ccc(NC(=O)c3cc([N+](=O)[O-])ccc3Cl)cc2)cc1 [Example 87, N-[4-[4-(tert-Butoxycarbonylamino)phenyl]phenyl]-(2-chloro-5-nitrophenyl)carboxamide] | 33 nM |
| CCCCCCCCNc1ccc(-c2ccc(NC(=O)c3cc([N+](=O)[O-])ccc3Cl)cc2)cc1 [Example 219, N-[4-[4-(N-Octylamino)phenyl]phenyl]-(2-chloro-5-nitrophenyl)carboxamide] | 8.3 nM |
| CCCCCCCCN(CCCCCC)c1ccc(-c2ccc(NC(=O)c3cc([N+](=O)[O-])ccc3Cl)cc2)cc1 [Example 220, N-[4-[4-(N-Hexyl-N-octylamino)phenyl]phenyl]-(2-chloro-5-nitrophenyl)carboxamide mono-hydrochloride] | 18 nM |
| CCCCCCCCN(CCCC)c1ccc(-c2ccc(NC(=O)c3cc([N+](=O)[O-])ccc3Cl)cc2)cc1.Cl [Example 223, N-[4-[4-(N-Butyl-N-octylamino)phenyl]phenyl]-(2-chloro-5-nitrophenyl)carboxamide mono-hydrochloride] | 89 nM |

Further compounds by falling IC50, results first:

| IC50 | SMILES |
| --- | --- |
| 990 nM | CCCCCCN(C)c1ccc(-c2ccc(NC(=O)c3cc([N+](=O)[O-])ccc3Cl)cc2)cc1 [Example 196, N-[4-[4-(N-Hexyl-N-methylamino)phenyl]phenyl]-(2-chloro-5-nitrophenyl)carboxamide] |
| 280 nM | CCCCCCN(CC)c1ccc(-c2ccc(NC(=O)c3cc([N+](=O)[O-])ccc3Cl)cc2)cc1 [Example 197, N-[4-[4-(N-Ethyl-N-hexylamino)phenyl]phenyl]-(2-chloro-5-nitrophenyl)carboxamide] |
| 160 nM | CCCCCCCCN(CCCC)c1ccc(-c2ccc(NC(=O)c3cc([N+](=O)[O-])ccc3Cl)cc2)cc1 [Example 222, N-[4-[4-(N-Butyl-N-octylamino)phenyl]phenyl]-(2-chloro-5-nitrophenyl)carboxamide] |
| 110 nM | O=C(Nc1cccnc1)c1cc([N+](=O)[O-])ccc1Cl [Example 50, N-(3-Pyridyl)-(2-chloro-5-nitrophenyl)carboxamide] |
| 79 nM | CCCCCCCCN(CCC)c1ccc(-c2ccc(NC(=O)c3cc([N+](=O)[O-])ccc3Cl)cc2)cc1 [Example 224, N-[4-[4-(N-Octyl-N-propylamino)phenyl]phenyl]-(2-chloro-5-nitrophenyl)carboxamide] |
| 71 nM | Cc1ccc2nc(-c3ccc(NC(=O)c4cc([N+](=O)[O-])ccc4Cl)cc3)sc2c1 [Example 10, N-[4-(6-Methylbenzothiazol-2-yl)phenyl]-(2-chloro-5-nitrophenyl)carboxamide] |
| 37 nM | Cc1ccnc(NC(=O)c2cc([N+](=O)[O-])ccc2Cl)n1 [Example 65, N-(4-Methylpyrimidin-2-yl)-(2-chloro-5-nitrophenyl)carboxamide] |
| 18 nM | CCCCCCNc1ccc(-c2ccc(NC(=O)c3cc([N+](=O)[O-])ccc3Cl)cc2)cc1 [Example 195, N-[4-[4-(N-Hexylamino)phenyl]phenyl]-(2-chloro-5-nitrophenyl)carboxamide] |
